Patent US20230094146A1, “DEUTERATED THIENOPYRIDINE COMPOUND” (MEDSHINE DISCOVERY INC., priority 2020, published 2023)
Counter-ions that a name gives are not always drawn.

Tests used:
[1] = Metabolic stability of liver microsomes in vitro; type: in vitro ADME; conditions: compound 1 μM
Protocol: (§1) SD rat, mouse, beagle, cynomolgus monkey and human microsomes were purchased from Corning, Xenotech or BioIVT and stored in a −80° C. freezer.
(§2) 1.2 Nicotinamide adenine dinucleotide phosphate, reduced (NADPH), supplier: Chem-impex international, catalog number: 00616.
(§3) 1.3 Control compounds: testosterone, diclofenac, propafenone.
(§4) Stock solution: 10 mM DMSO solution.
(§5) Working concentration preparation: 100% acetonitrile diluted to 100 μM (organic phase content: 99% ACN, 1% DMSO).
(§6) Prepare two 96-well incubation plates, which were named T60 incubation plate and NCF60 incubation plate, respectively.
(§7) 445 μL of microsomal working solution (liver microsomal protein concentration of 0.56 mg/mL) was added to the T60 incubation plate and NCF60 incubation plate, respectively, and then the above incubation plates were preincubated in a 37° C. water bath for about 10 minutes.
(§8) After the preincubation, 5 μL of test substance or working solution of control compound were added to the T60 incubation plate and NCF60 incubation plate, respectively, and mixed well. The reaction was initiated by adding 50 μL of potassium phosphate buffer to each well of the NCF60 incubation plate; 180 μL of termination solution (acetonitrile solution containing 200 ng/mL tolbutamide and 200 ng/mL labetalol) and 6 μL of NADPH regeneration system working solution were added to the TO termination plate, and 54 μL of sample was removed from the T60 incubation plate to the TO termination plate (TO sample generation). The reaction was initiated by adding 44 μL NADPH regeneration system working solution to each well of the T60 incubation plate. 54 μL of microsomal working solution, 6 μL of NADPH regeneration system working solution and 180 μL of termination solution were added only to the blank plate. Therefore, in the samples of the test or control compounds, the final reaction concentration of compound, testosterone, diclofenac and propafenone was 1 μM, the concentration of liver microsomes was 0.5 mg/mL, and the final concentration of DMSO and acetonitrile in the reaction system were 0.01% (v/v) and 0.99% (v/v), respectively.
(§9) After incubation for an appropriate time (e.g. 5, 10, 20, 30 and 60 minutes), 180 μL of termination solution (acetonitrile solution containing 200 ng/mL tolbutamide and 200 ng/mL labetalol) was added to the sample well of each termination plate, respectively, and then 60 μL of sample was removed from the T60 incubation plate to terminate the reaction.
(§10) All sample plates were shaken well and centrifuged at 3220×g for 20 minutes, then 80 μL of supernatant per well was diluted into 240 μL of purified water for liquid chromatography tandem mass spectrometry analysis.
(§11) All samples were injected for analysis.

[2] = Metabolic stability of liver microsomes in vitro; type: in vitro ADME, beagle; conditions: Dog liver microsomes 0.5 mg/mL, compound 1 μM; for CLint scaled at 1 μM: beagle
Protocol: as §1, §2, §3, §4, §5, §6, §7, §8, §9, §10, §11

[3] = Metabolic stability of liver microsomes in vitro; type: in vitro ADME, cynomolgus monkey; conditions: Monkey liver microsomes 0.5 mg/mL, compound 1 μM
Protocol: as §1, §2, §3, §4, §5, §6, §7, §8, §9, §10, §11

[4] = Metabolic stability of liver microsomes in vitro; type: in vitro ADME, SD rat; conditions: Rat liver microsomes 0.5 mg/mL, compound 1 μM; for CLint scaled at 1 μM: Sprague-Dawley
Protocol: as §1, §2, §3, §4, §5, §6, §7, §8, §9, §10, §11

[5] = target: T1, DDR2 (Homo sapiens, UniProt Q16832); assay: 33P isotope-labeled kinase activity assay (Reaction Biology Corp); type: biochemical; conditions: 33P-ATP at Km concentration
T1 construct: purchased Reaction Biology Corp
T1 sequence (Q16832 22-855): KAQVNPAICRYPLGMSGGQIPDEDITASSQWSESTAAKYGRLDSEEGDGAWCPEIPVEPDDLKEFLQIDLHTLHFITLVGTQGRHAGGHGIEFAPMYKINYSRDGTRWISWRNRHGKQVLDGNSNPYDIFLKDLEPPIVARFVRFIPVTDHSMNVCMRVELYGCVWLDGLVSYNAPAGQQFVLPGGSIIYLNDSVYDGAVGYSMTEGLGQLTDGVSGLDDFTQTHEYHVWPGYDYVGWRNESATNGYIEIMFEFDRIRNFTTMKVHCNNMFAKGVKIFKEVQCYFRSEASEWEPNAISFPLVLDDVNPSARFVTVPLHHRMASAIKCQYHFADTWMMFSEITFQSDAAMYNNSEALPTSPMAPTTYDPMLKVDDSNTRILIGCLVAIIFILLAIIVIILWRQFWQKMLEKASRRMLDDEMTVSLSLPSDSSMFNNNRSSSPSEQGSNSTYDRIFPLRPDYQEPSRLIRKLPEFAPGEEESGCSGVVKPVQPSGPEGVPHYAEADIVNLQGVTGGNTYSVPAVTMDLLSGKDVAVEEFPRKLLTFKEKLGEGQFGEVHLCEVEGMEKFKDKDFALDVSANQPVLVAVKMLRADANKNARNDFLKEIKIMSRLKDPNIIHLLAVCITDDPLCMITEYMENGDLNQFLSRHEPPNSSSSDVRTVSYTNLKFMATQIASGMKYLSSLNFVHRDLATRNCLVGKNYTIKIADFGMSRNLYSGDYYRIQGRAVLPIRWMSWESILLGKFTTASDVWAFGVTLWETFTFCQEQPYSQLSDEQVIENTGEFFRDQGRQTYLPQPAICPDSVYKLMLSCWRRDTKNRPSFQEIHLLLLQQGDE
Protocol: (§12) The ^33P isotope-labeled kinase activity assay (Reaction Biology Corp) was used to determine the IC50 value to evaluate the inhibitory ability of the test compounds to Axl, c-Kit, Mer, DDR2, VEGFR1, VEGFR2, VEGFR3, TrkA, and FLT3.
(§13) Buffer conditions: 20 mM hydroxyethylpiperazine […] (Hepes) (pH 7.5), 10 mM MgCl2, 1 mM ethylene glycol bisaminoethyl ether tetraacetic acid (EGTA), 0.02% polyoxyethylene dodecane Ether (Brij35), 0.02 mg/ml BSA, 0.1 mM Na3VO4, 2 mM dithiothreitol (DTT), 1% DMSO.
(§14) Compound Treatment: Test compounds were dissolved in 100% DMSO and diluted serially to a specific concentration with DMSO by Integra Viaflo Assist.
(§15) Test procedure: The substrate was dissolved in freshly prepared buffer, the tested kinase was added and gently mixed well. The DMSO solution containing the test compound was added to the above well mixed reaction solution using acoustic technique (Echo 550) and incubated at room temperature for […]. The compound concentrations in the reaction solution were 3 μM, 1 μM, 0.333 μM, 0.111 μM, 0.0370 μM, 0.0123 μM, 4.12 nM, 1.37 nM, 0.457 nM, 0.152 nM. After 15 minutes of incubation, ^33P-ATP (activity 0.01 μCi/μL, Km concentration) was added to start the reaction. The reaction was carried out at room temperature for 120 minutes, then radioactivity was detected by filter binding method. The kinase activity data were expressed by comparison between the kinase activity containing the test compound and the kinase activity of the blank group (containing DMSO only), and the IC50 values were obtained by curve fitting using Prism4 software (GraphPad), and the experimental results are shown in Table 1.

[6] = target: T2, VEGFR3 (Homo sapiens, UniProt P35916); assay: as above; type: biochemical; conditions: 33P-ATP at Km concentration
T2 construct: purchased Reaction Biology Corp
T2 sequence (P35916 25-1363): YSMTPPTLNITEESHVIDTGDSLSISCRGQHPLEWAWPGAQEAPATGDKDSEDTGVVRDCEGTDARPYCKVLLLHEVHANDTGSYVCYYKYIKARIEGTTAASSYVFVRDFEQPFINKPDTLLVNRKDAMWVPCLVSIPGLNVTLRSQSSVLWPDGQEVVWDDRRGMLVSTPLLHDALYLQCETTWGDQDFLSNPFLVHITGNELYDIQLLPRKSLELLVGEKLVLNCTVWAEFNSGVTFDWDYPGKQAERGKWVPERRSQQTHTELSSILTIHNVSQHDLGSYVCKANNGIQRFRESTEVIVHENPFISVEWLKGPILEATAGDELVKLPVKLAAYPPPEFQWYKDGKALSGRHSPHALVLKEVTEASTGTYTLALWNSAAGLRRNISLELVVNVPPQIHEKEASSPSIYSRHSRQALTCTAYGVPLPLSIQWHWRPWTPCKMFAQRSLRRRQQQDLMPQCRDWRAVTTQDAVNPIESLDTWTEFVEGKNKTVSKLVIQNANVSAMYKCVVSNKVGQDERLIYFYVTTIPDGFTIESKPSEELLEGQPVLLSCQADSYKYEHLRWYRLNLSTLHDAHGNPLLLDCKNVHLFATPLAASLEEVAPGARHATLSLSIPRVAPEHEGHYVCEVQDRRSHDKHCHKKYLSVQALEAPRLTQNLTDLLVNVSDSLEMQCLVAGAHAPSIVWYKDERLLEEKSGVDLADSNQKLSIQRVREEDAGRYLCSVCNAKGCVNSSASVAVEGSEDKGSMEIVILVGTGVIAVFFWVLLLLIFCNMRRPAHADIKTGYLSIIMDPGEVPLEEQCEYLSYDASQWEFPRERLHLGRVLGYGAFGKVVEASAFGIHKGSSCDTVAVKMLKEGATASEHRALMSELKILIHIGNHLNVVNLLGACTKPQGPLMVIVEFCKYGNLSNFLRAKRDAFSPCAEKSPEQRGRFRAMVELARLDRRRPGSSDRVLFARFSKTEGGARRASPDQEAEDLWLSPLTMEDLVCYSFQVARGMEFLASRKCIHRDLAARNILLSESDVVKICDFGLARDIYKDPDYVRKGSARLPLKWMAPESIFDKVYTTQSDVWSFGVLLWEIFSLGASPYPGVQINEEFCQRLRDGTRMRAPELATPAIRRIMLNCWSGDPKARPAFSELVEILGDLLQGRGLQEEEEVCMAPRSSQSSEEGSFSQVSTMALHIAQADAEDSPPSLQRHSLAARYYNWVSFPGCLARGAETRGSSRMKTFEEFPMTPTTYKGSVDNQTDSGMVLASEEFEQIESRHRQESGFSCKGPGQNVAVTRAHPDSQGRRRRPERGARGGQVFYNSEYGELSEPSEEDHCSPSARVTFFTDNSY
Protocol: as §12, §13, §14, §15

[7] = target: T3, VEGFR2 (Homo sapiens, UniProt P35968); assay: as above; type: biochemical; conditions: 33P-ATP at Km concentration
T3 construct: purchased Reaction Biology Corp
T3 sequence (P35968 20-1356): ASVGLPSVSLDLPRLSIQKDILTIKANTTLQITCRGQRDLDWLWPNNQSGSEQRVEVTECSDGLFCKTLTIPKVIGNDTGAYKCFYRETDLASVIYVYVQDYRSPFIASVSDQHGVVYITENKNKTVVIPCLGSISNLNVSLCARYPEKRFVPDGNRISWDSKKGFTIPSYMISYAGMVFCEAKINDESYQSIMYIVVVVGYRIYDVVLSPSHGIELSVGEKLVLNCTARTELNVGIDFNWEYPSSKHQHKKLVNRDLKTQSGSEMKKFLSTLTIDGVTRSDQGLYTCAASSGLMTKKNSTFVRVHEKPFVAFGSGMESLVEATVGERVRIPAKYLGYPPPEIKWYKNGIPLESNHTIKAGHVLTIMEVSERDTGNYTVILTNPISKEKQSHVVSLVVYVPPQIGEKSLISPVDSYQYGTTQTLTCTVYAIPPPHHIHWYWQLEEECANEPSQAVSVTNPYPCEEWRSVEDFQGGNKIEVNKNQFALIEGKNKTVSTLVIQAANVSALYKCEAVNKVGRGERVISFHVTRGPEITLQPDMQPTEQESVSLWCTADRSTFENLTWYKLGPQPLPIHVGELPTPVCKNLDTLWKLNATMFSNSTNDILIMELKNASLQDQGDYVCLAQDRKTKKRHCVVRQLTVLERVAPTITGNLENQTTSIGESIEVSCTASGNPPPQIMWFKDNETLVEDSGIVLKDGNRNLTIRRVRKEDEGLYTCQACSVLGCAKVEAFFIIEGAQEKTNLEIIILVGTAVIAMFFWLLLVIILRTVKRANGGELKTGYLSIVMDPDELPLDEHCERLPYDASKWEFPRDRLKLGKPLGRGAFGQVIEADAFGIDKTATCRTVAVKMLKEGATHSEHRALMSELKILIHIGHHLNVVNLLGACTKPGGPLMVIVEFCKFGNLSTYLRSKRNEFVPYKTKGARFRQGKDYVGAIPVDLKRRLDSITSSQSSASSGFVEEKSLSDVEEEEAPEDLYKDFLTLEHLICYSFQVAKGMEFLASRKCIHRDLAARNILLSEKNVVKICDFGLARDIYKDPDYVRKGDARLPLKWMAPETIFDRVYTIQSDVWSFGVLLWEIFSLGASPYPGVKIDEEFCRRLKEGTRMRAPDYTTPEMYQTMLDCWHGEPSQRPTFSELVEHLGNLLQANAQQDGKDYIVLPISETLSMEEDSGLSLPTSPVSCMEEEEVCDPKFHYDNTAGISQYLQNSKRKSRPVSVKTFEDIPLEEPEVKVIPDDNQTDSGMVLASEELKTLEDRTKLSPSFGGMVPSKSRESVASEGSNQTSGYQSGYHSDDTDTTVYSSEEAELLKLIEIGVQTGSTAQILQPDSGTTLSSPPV
Protocol: as §12, §13, §14, §15

[8] = target: T4, VEGFR1 (Homo sapiens, UniProt P17948); assay: as above; type: biochemical; conditions: 33P-ATP at Km concentration
T4 construct: purchased Reaction Biology Corp
T4 sequence (P17948 27-1338): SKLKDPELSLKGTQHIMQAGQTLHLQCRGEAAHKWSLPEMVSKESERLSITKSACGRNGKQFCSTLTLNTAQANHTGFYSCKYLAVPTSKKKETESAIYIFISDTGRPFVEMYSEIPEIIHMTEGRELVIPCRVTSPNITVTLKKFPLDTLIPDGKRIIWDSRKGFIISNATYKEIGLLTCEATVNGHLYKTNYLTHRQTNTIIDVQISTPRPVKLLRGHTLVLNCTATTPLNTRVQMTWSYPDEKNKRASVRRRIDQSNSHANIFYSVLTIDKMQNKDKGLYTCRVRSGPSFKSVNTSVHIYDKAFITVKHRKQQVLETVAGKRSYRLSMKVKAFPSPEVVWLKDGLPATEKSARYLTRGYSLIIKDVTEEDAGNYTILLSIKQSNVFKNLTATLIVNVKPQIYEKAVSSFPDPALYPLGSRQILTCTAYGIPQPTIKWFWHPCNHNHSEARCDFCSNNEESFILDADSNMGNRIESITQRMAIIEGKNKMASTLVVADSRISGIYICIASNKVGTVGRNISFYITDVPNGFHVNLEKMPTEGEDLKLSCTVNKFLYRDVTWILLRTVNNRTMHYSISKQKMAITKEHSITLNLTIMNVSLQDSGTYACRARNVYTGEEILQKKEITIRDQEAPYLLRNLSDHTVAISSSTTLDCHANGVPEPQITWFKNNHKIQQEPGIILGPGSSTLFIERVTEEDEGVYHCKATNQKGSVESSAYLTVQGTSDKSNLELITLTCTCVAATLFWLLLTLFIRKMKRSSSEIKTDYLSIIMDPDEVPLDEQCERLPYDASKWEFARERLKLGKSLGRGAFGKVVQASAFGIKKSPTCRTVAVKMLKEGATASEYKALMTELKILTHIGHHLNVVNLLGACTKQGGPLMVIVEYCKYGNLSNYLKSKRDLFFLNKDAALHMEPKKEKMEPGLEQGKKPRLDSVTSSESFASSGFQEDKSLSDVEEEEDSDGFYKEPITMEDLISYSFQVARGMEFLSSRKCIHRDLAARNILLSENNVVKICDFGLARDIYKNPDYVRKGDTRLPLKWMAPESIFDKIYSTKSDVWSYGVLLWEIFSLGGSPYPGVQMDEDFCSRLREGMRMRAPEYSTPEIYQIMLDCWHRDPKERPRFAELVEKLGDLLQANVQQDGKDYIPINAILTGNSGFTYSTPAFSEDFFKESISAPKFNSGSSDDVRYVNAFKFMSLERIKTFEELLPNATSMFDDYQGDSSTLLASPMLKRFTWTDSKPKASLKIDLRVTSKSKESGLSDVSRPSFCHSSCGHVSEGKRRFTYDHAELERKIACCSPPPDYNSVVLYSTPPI
Protocol: as §12, §13, §14, §15

[9] = Pharmacokinetic evaluation in rats after oral administration; type: in vivo; conditions: Sprague-Dawley, plasma, 5 mg/kg, SD rat (male), 5 mpk
Protocol: Testing the pharmacokinetic properties of the compounds of the present disclosure in rats.
The pharmacokinetic characteristics of the compounds in rodents after oral administration were tested by standard protocols. In the experiment, the candidate compounds were formulated into a clarified solution and given to rats for oral administration. The vehicle was 10% NMP/40% PEG400/[…]. Whole blood samples were collected within 24 hours (0.0833, 0.25, 0.5, 1, 2, 4, 6, 8, 24 h), and all blood samples were added to the plastic centrifuge tubes pre-labeled with 0.5 M K2-EDTA anticoagulant.

[10] = Human liver microsomes 0.5 mg/mL
[11] = Mouse liver microsomes 0.5 mg/mL

CLint scaled at 1 μM [1, 10] [mL/min/kg] | 60 min remaining [1, 10] [%] | CLint scaled at 1 μM [1, 11] [mL/min/kg] | 60 min remaining [1, 11] [%] | 60 min remaining [2] [%] | CLint scaled at 1 μM [2] [mL/min/kg] | CLint scaled at 1 μM [3] [mL/min/kg] | 60 min remaining [3] [%] | 60 min remaining [4] [%] | CLint scaled at 1 μM [4] [mL/min/kg] | IC50 [5] [nM] | IC50 [6] [nM] | IC50 [7] [nM] | IC50 [8] [nM] | AUC(0-t) [9] [µM·h] | Cmax [9] [nM] | Tmax [9] [h] | Structure (SMILES)
< 8.6 | 96.4 | 301 | 11.3 | 5.4 | 139 | 19.7 | 59.7 | 26.2 | 78.1 | 1.14 | 2.13 | 2.75 | 7.16 |  |  |  | [2H]C([2H])([2H])OC([2H])([2H])CNCc1ccc(-c2cc3nccc(Oc4ccc(NC(=O)C5(C(=O)Nc6ccc(F)cc6)CC5)cc4F)c3s2)nc1 [Hydrochloride of 002]
10.6 | 71.5 | 460 | 3.30 | 2.6 | 172 | 42.8 | 38.5 | 4.2 | 192 |  |  |  |  | 4.79 | 801 | 3 | COCCNCc1ccc(-c2cc3nccc(Oc4ccc(NC(=O)C5(C(=O)Nc6ccc(F)cc6)CC5)cc4F)c3s2)nc1 [Sitravatinib, reference compound]
< 8.6 | 87.1 | 321 | 9.5 | 4.9 | 144 | 22.5 | 55.9 | 28.6 | 71.3 | 0.79 | 2.82 | 2.16 | 10.5 | 6.65 | 930 | 1.25 | [2H]C([2H])([2H])OCCNCc1ccc(-c2cc3nccc(Oc4ccc(NC(=O)C5(C(=O)Nc6ccc(F)cc6)CC5)cc4F)c3s2)nc1 [Trifluoroacetate of 001]
